Test results as given in ChEMBL document CHEMBL3991601, “The target landscape of clinical kinase drugs” (Science, 2017).
The source made the active and inactive calls. Cut-off read from the data, not from the text of the source, for most assays here: actives have a measured Kd and inactives only a lower limit.

Experiments:
[1] = biological target: T1, Adenine phosphoribosyltransferase (Homo sapiens, UniProt P07741)
T1 sequence (P07741 whole entry): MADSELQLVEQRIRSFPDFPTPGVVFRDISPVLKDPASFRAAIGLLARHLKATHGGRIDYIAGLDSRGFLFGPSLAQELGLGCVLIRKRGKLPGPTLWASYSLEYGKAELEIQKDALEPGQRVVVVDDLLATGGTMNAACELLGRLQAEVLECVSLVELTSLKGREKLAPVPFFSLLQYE

[2] = biological target: Mitotic checkpoint serine/threonine-protein kinase BUB1 (Homo sapiens, UniProt O43683)
Sequence of Mitotic checkpoint serine/threonine-protein kinase BUB1 (O43683 whole entry): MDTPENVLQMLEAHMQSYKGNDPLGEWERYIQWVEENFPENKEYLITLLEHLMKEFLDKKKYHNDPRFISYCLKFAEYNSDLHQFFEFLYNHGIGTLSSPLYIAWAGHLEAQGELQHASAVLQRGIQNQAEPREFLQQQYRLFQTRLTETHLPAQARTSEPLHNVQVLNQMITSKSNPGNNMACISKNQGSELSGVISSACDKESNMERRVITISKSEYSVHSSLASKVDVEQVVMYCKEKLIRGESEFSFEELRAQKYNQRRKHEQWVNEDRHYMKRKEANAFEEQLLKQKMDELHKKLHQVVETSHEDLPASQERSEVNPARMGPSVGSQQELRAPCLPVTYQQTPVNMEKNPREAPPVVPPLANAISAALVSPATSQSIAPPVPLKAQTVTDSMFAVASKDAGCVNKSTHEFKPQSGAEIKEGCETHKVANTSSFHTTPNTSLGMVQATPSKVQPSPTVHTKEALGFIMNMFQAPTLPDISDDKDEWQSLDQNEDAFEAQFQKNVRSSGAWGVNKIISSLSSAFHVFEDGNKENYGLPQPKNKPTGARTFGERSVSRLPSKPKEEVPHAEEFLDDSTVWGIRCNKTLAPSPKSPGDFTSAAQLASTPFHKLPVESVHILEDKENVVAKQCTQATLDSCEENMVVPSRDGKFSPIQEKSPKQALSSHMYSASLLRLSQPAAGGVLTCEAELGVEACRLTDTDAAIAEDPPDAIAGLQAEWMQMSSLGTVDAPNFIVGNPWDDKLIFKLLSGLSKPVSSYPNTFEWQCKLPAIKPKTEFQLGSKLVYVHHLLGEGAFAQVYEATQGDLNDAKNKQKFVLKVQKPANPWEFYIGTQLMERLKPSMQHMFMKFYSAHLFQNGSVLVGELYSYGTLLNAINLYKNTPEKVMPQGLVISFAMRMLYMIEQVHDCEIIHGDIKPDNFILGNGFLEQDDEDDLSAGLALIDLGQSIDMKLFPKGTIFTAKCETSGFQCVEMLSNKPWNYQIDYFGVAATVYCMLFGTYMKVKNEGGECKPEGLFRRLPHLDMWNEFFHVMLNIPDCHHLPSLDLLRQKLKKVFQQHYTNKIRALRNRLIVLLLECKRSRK

[3] = biological target: T2, Interleukin-1 receptor-associated kinase 3 (Homo sapiens, UniProt Q9Y616)
T2 sequence (Q9Y616 whole entry): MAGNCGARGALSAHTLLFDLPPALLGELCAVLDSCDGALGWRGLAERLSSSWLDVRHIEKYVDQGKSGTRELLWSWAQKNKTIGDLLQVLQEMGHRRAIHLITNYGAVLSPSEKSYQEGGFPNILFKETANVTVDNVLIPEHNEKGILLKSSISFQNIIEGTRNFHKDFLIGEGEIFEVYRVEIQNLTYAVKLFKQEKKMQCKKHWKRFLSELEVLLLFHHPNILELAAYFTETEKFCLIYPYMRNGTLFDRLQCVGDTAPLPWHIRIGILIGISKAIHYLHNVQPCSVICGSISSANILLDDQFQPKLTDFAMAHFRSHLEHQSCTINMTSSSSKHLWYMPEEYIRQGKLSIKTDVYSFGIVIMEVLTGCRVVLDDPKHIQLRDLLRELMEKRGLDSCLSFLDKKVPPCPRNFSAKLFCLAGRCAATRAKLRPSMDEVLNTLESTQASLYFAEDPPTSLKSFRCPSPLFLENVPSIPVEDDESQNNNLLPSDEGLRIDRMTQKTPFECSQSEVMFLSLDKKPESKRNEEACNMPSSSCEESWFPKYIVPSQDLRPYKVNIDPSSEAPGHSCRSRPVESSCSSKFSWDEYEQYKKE

[4] = biological target: Protein kinase C alpha type (Homo sapiens, UniProt P17252)
[5] = biological target: Protein kinase C beta type (Homo sapiens, UniProt P05771)
Sequence of Protein kinase C beta type (P05771 whole entry): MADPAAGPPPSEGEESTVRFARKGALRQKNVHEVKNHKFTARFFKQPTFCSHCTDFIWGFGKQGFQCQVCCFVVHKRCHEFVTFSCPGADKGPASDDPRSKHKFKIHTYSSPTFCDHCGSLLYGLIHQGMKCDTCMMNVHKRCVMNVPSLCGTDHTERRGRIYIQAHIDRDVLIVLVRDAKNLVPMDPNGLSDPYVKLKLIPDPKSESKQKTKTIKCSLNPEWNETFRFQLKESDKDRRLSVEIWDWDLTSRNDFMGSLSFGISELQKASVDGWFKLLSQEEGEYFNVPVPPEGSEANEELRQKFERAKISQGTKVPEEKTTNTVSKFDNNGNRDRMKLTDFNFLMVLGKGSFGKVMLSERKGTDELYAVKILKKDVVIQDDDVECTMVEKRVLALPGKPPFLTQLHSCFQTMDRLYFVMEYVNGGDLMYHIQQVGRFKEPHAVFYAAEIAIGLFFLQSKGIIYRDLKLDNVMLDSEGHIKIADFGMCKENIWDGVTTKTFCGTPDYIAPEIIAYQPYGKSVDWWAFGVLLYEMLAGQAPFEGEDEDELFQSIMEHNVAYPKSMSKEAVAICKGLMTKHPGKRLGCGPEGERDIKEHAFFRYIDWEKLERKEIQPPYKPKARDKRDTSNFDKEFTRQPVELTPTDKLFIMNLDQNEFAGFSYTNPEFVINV

[6] = biological target: 26S proteasome regulatory subunit 6B (Homo sapiens, UniProt P43686)
Sequence of 26S proteasome regulatory subunit 6B (P43686 whole entry): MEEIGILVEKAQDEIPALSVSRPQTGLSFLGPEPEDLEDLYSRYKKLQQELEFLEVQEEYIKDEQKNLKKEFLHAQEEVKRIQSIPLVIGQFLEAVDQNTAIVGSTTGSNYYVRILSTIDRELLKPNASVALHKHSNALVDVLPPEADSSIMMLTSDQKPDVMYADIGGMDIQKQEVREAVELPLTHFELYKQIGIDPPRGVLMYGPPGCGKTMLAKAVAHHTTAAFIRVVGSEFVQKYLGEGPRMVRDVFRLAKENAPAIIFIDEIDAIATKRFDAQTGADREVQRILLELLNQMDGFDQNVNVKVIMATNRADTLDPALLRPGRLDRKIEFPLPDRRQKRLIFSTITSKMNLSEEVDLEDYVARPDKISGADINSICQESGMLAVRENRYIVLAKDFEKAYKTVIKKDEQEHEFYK

[7] = biological target: Ribosomal protein S6 kinase alpha-5 (Homo sapiens, UniProt O75582)
Sequence of Ribosomal protein S6 kinase alpha-5 (O75582 whole entry): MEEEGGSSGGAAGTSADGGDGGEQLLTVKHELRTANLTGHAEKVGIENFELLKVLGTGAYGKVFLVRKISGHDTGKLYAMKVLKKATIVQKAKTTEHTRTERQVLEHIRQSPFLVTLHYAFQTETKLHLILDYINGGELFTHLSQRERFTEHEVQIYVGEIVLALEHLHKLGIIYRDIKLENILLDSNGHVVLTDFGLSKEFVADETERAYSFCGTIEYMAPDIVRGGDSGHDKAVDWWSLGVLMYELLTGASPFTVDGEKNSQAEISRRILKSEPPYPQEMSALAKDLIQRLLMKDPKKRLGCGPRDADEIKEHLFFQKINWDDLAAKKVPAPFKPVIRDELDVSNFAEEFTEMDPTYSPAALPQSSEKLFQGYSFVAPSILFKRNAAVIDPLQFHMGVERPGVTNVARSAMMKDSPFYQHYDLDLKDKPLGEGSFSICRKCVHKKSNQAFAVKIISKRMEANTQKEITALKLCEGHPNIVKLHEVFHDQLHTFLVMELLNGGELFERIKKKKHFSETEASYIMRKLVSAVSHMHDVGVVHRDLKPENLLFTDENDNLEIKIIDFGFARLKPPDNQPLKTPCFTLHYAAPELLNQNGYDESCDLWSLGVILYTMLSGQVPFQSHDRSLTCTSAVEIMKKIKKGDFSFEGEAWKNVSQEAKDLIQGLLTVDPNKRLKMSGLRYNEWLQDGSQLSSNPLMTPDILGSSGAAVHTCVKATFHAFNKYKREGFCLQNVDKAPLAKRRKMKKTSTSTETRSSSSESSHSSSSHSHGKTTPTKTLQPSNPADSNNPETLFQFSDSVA

[8] = biological target: Serine/threonine-protein kinase SIK2 (Homo sapiens, UniProt Q9H0K1)
Sequence of Serine/threonine-protein kinase SIK2 (Q9H0K1 whole entry): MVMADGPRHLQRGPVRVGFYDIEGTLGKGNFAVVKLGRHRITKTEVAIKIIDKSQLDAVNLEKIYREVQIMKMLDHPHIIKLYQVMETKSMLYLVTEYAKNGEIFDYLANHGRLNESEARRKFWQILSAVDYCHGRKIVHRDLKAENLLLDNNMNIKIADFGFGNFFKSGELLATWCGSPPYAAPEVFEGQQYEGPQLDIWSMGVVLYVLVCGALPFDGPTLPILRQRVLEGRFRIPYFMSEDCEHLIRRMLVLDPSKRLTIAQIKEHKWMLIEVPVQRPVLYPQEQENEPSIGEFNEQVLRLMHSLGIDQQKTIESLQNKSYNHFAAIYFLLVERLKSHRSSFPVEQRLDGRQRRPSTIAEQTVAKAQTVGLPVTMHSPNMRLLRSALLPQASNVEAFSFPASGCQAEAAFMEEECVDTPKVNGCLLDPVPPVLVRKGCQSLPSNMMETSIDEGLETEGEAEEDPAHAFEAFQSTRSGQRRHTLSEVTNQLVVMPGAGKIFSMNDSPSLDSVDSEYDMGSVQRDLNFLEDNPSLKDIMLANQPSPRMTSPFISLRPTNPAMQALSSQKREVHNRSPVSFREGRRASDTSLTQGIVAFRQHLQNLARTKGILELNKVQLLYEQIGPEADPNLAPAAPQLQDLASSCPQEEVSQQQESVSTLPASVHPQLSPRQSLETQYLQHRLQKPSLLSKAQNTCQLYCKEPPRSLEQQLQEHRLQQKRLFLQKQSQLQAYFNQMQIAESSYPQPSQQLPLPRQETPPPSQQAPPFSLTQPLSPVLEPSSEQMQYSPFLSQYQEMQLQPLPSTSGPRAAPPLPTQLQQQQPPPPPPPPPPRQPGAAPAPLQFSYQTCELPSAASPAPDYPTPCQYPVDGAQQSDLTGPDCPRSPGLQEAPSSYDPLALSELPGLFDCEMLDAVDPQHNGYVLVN

[9] = biological target: T3, ADP/ATP translocase 2 (Homo sapiens, UniProt P05141)
T3 sequence (P05141 whole entry): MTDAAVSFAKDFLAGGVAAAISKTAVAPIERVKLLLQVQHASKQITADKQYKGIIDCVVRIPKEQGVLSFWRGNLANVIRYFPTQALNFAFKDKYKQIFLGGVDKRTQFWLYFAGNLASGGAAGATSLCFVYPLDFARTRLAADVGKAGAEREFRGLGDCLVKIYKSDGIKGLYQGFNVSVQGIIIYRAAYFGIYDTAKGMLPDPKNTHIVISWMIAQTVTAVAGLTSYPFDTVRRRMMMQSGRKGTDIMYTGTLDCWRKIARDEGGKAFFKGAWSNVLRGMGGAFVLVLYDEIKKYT

[10] = biological target: T4, Tyrosine-protein kinase Tec (Homo sapiens, UniProt P42680)
T4 sequence (P42680 whole entry): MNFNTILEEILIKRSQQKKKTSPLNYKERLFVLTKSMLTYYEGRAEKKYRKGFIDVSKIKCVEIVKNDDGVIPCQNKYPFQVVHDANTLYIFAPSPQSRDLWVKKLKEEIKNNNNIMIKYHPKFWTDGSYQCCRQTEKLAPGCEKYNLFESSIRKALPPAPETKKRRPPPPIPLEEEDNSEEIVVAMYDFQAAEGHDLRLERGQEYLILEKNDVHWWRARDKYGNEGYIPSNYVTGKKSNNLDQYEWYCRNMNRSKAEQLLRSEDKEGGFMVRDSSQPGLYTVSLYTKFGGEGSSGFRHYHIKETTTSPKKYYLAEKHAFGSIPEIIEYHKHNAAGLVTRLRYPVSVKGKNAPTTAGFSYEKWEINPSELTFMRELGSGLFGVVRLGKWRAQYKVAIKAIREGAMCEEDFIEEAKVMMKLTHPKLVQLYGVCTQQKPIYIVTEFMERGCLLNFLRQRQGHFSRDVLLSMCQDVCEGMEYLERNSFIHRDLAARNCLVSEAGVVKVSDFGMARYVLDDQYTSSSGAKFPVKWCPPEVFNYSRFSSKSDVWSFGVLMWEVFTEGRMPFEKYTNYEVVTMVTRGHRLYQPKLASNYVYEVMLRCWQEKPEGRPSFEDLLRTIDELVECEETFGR

[11] = biological target: T5, EKC/KEOPS complex subunit TP53RK (Homo sapiens, UniProt Q96S44)
T5 sequence (Q96S44 whole entry): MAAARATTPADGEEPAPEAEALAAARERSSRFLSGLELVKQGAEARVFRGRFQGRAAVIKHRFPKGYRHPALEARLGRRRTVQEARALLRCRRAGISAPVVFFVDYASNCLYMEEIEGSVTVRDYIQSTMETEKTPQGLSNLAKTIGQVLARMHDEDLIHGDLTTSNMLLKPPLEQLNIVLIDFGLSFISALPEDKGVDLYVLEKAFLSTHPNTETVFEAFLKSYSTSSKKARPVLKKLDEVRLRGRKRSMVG
Note: in the data inactive means no Kd found up to 30 µM.

Compound	Kd [1]	Kd [4]	Kd [5]	Kd [6]	Kd [7]	Kd [8]	Kd [9]	Kd [11]	Kd [2]	Kd [3]	Kd [10]
Cn1cc(-c2[nH]c3cc(NC(=O)[C@H](N)C4CCCCC4)cc4c3c2C=NNC4=O)cn1	> 30 µM (inactive)	> 30 µM (inactive)	> 30 µM (inactive)	> 30 µM (inactive)	> 30 µM (inactive)	0.047 µM (active)	> 30 µM (inactive)	> 30 µM (inactive)	> 30 µM (inactive)	> 30 µM (inactive)	> 30 µM (inactive)
Cc1c(NC(=O)OC[C@@H]2COCCN2)cn2ncnc(Nc3ccc4c(cnn4Cc4cccc(F)c4)c3)c12 [AC-480]	> 30 µM (inactive)	> 30 µM (inactive)	> 30 µM (inactive)	> 30 µM (inactive)	> 30 µM (inactive)	> 30 µM (inactive)	> 30 µM (inactive)	> 30 µM (inactive)	> 30 µM (inactive)	> 30 µM (inactive)	> 30 µM (inactive)
C=CCn1c(=O)c2cnc(Nc3ccc(N4CCN(C)CC4)cc3)nc2n1-c1cccc(C(C)(C)O)n1 [ADAVOSERTIB]	> 30 µM (inactive)	> 30 µM (inactive)	> 30 µM (inactive)	> 30 µM (inactive)	> 30 µM (inactive)	> 30 µM (inactive)	> 30 µM (inactive)	> 30 µM (inactive)	> 30 µM (inactive)	> 30 µM (inactive)	> 30 µM (inactive)
CCc1cc2c(cc1N1CCC(N3CCOCC3)CC1)C(C)(C)c1[nH]c3cc(C#N)ccc3c1C2=O [ALECTINIB]	> 30 µM (inactive)	> 30 µM (inactive)	> 30 µM (inactive)	> 30 µM (inactive)	> 30 µM (inactive)	> 30 µM (inactive)	> 30 µM (inactive)	> 30 µM (inactive)	> 30 µM (inactive)	> 30 µM (inactive)	> 30 µM (inactive)
NC[C@@](O)(c1ccc(Cl)cc1)c1ccc(-c2cn[nH]c2)cc1 [AT-13148]	> 30 µM (inactive)	> 30 µM (inactive)	> 30 µM (inactive)	> 30 µM (inactive)	> 30 µM (inactive)	> 30 µM (inactive)	> 30 µM (inactive)	> 30 µM (inactive)	–	> 30 µM (inactive)	> 30 µM (inactive)
CCN(CCCOc1ccc2c(Nc3cc(CC(=O)Nc4cccc(F)c4)n[nH]3)ncnc2c1)CCOP(=O)(O)O [BARASERTIB]	> 30 µM (inactive)	> 30 µM (inactive)	> 30 µM (inactive)	> 30 µM (inactive)	> 30 µM (inactive)	–	> 30 µM (inactive)	> 30 µM (inactive)	–	> 30 µM (inactive)	> 30 µM (inactive)
CC1(COc2ccc3c(c2)ncn3-c2ccc3cccc(N4CCC(N)CC4)c3n2)COC1 [CRENOLANIB]	0.029 µM	> 30 µM (inactive)	> 30 µM (inactive)	> 30 µM (inactive)	> 30 µM (inactive)	–	> 30 µM (inactive)	> 30 µM (inactive)	> 30 µM (inactive)	1.51 µM (active)	> 30 µM (inactive)
O=S(=O)(c1cccc2cnccc12)N1CCCNCC1 [FASUDIL]	> 30 µM (inactive)	> 30 µM (inactive)	> 30 µM (inactive)	> 30 µM (inactive)	–	> 30 µM (inactive)	> 30 µM (inactive)	> 30 µM (inactive)	> 30 µM (inactive)	–	> 30 µM (inactive)
O=S(=O)(c1cccc2c(O)nccc12)N1CCCNCC1 [HYDROXYFASUDIL]	> 30 µM (inactive)	–	> 30 µM (inactive)	> 30 µM (inactive)	> 30 µM (inactive)	> 30 µM (inactive)	> 30 µM (inactive)	> 30 µM (inactive)	> 30 µM (inactive)	> 30 µM (inactive)	> 30 µM (inactive)
CN(c1ncccc1CNc1nc(Nc2ccc3c(c2)CC(=O)N3)ncc1C(F)(F)F)S(C)(=O)=O [PF-00562271]	> 30 µM (inactive)	> 30 µM (inactive)	> 30 µM (inactive)	> 30 µM (inactive)	–	–	> 30 µM (inactive)	> 30 µM (inactive)	> 30 µM (inactive)	> 30 µM (inactive)	> 30 µM (inactive)
C=CC(=O)Nc1cccc(Nc2nc(Nc3ccc(N4CCN(C(C)=O)CC4)cc3OC)ncc2C(F)(F)F)c1 [ROCILETINIB]	> 30 µM (inactive)	> 30 µM (inactive)	> 30 µM (inactive)	> 30 µM (inactive)	> 30 µM (inactive)	> 30 µM (inactive)	> 30 µM (inactive)	> 30 µM (inactive)	–	> 30 µM (inactive)	0.288 µM (active)
Cn1cnc2c(F)c(Nc3ccc(Br)cc3Cl)c(C(=O)NOCCO)cc21 [SELUMETINIB]	> 30 µM (inactive)	> 30 µM (inactive)	> 30 µM (inactive)	> 30 µM (inactive)	–	–	> 30 µM (inactive)	> 30 µM (inactive)	> 30 µM (inactive)	–	–
O=C(O)c1ccc2c(c1)nc(Nc1cccc(Cl)c1)c1ccncc12 [SILMITASERTIB]	> 30 µM (inactive)	> 30 µM (inactive)	> 30 µM (inactive)	> 30 µM (inactive)	> 30 µM (inactive)	> 30 µM (inactive)	> 30 µM (inactive)	–	–	> 30 µM (inactive)	> 30 µM (inactive)
COc1cc2c(N3CCN(C(=O)Nc4ccc(OC(C)C)cc4)CC3)ncnc2cc1OCCCN1CCCCC1 [TANDUTINIB]	> 30 µM (inactive)	> 30 µM (inactive)	> 30 µM (inactive)	> 30 µM (inactive)	–	–	> 30 µM (inactive)	> 30 µM (inactive)	> 30 µM (inactive)	–	–

Further lines, with some results ahead:

Kd [1]	Kd [4]	Kd [5]	Kd [6]	Kd [7]	Kd [8]	Kd [9]	Kd [11]	Compound	Kd [2]	Kd [3]	Kd [10]
> 30 µM (inactive)	> 30 µM (inactive)	> 30 µM (inactive)	> 30 µM (inactive)	> 30 µM (inactive)	> 30 µM (inactive)	> 30 µM (inactive)	> 30 µM (inactive)	COc1ccc2c(OCc3nnc4ccc(-c5ccccc5)nn34)ccnc2c1 [AMG-208]	> 30 µM (inactive)	> 30 µM (inactive)	> 30 µM (inactive)
> 30 µM (inactive)	> 30 µM (inactive)	> 30 µM (inactive)	> 30 µM (inactive)	> 30 µM (inactive)	> 30 µM (inactive)	> 30 µM (inactive)	> 30 µM (inactive)	CCOc1ccn(-c2ccc(F)cc2)c(=O)c1C(=O)Nc1ccc(Oc2ccnc(N)c2Cl)c(F)c1 [BMS-777607]	–	–	> 30 µM (inactive)
